Assay type in all cases: cell-based
Data set [1] addresses T1, FXR (Homo sapiens, UniProt Q96RI1).
T1 sequence (Q96RI1 262-486 limits assumed): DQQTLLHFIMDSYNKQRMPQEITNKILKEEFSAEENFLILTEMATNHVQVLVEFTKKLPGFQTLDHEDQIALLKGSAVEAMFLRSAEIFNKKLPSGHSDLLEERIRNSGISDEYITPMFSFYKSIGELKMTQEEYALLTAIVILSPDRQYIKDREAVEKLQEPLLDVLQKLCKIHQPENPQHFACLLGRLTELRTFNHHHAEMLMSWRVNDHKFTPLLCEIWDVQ
In words: FXR antagonist test, luciferase reporter gene experiment against agonist GW4064. The following applies: antagonistic activity; HEK293 cells co-transfected with LBD(hFXR)-pbind and luciferase reporter; GW4064 300 nM. The source says:
The antagonistic activity of the compound against FXR was detected by the reporter gene experiment. FXR is a nuclear receptor activated by bile acids and has regulatory effects on glucose metabolism and lipid metabolism in the body. After FXR is activated, it can initiate the expression of a series of genes and respond to external stimuli. The Luciferase reporter gene system is a reporting system for detecting firefly luciferase activity. Luciferase can catalyze the oxidation of Luciferin, a fluorescent substrate, and cause emition of biological fluorescence at the same time. The amount of luciferase expression can be determined by detecting the fluorescence intensity. In this experiment, the test compound may target FXR, and GW4064 is a known FXR agonist, which initiates the expression of a series of genes after binding to the FXR ligand-binding domain. Therefore, the reporter gene experiment was used. Two plasmids, LBD (hFXR)-pbind and PGL4.31-Luc were co-transfected into HEK293 cells to express the FXR ligand-binding domain in the cells. Two test compounds were separately added and a blank control group was set, and then an agonist was added. If the compound has affinity for FXR, it will compete with the agonist for binding to the FXR ligand-binding domain and affect the expression of luciferase in pGL4.31-Luc. The Envision2101 multi-well microplate reader was used to detect the chemiluminescence count value, and the effect of the test compound on FXR activity was judged based on the fluorescence intensity. 2 μg of the chimeric plasmid LBD(hFXR)-pbind and 2 μg of Luciferase reporter plasmid were co-transfected into 2×10^6 HEK293 cells and inoculated in white opaque 96-well plates. After 24 h, the culture medium was discarded, and the test compound (diluted with serum-free culture medium, containing 1% DMSO) was added and incubated for 1 h. Then FXR agonist GW4064 (300 nM) was added to stimulate for 6 h, and finally luciferase substrate was added and shaken to lyse. Luminescence was measured on the Envision 2104 microplate reader.
On the technique in general: Reporter assays use an easily measured gene product as a stand-in for the process of interest.

Data set [2] addresses T2, TGR5 (Homo sapiens, UniProt Q8TDU6).
T2 construct: expressed in transfected cells; host or cells: HEK293
T2 sequence (Q8TDU6 1-330): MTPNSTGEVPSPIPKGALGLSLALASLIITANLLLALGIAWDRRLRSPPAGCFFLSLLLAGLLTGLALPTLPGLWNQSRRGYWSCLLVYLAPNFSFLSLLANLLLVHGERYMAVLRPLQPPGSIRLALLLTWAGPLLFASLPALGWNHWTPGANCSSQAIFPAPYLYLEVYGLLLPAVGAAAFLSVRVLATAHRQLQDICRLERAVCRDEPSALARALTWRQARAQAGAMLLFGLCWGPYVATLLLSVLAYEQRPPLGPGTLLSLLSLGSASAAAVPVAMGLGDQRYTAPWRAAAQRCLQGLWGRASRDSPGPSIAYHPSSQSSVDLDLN
Briefly: TGR5 agonist test, HTRF cAMP detection in HEK293 cells transiently transfected with TGR5. The following applies: Table 2, TGR5 agonistic activity, HEK293 cells expressing TGR5, up to 100 μM, read-out: FXR (IC50/μM). The source says: HEK293 cells transiently transfected with TGR5 were stimulated with compounds, and then homogeneous time-resolved fluorescence (HTRF) was used to detect whether these compounds could agitate TGR5.
TGR5 is a bile acid membrane receptor and a member of the GPCR family. It regulates the metabolism of bile acids, lipids, and sugars. TGR5 is coupled to the Gs protein, and after activation, it further activates adenylate cyclase to produce a second messenger cAMP. HTRF is a method for detecting the content of cAMP and combines two techniques of fluorescence resonance energy transfer (FRET) and time-resolved fluorescence (TRF). […] FRET induces the acceptor to generate fluorescence, and Eu has a long fluorescence lifetime. TRF can distinguish the fluorescent signal by the acceptor from the fluorescent background. The fluorescent donor is bound to a cAMP-specific antibody, and cAMP is simultaneously labeled with a fluorescent acceptor. The donor and acceptor approach to each other through the antigen-antibody specific recognition reaction to generate FRET, and the cAMP produced by the cell competes with the labeled cAMP for antibody binding sites, resulting in the decrease of fluorescence intensity.
4.1. The test compound was prepared with 1× PBS into a solution having 2 times of the final concentration. The final concentration was 100 μM, 10 μM, 1 μM, 100 nM, 10 nM, 1 nM, 0.1 nM, DMSO (each well contains 1% DMSO).
4.2.2. The cell density was determined. At the same time, IBMX (final concentration of […]) was added into the serum-free culture medium, and the number of cells was 2000/5 μl/well.
4.2.3. 5 μl of the test compound and 5 μl of the cell suspension containing IBMX were added and mixed. A 384-well plate was sealed with a foil paper. The mixtures were protected from light and reacted at room temperature for […].
4.3.1 1 μl cAMP-d2 was diluted to 20 μl by using cAMP&cGMP conjugates & lysis buffer. 4.3.2 1 μl anti-cAMP-Cryptate was diluted to 20 μl by using cAMP&cGMP conjugates&lysis buffer.
4.3.3 After 30 minutes, 5 μl (1.3.1) and 5 μl (1.3.2) were added and a 384-well plate was sealed with a foil paper. The mixtures were protected from light and reacted at room temperature.
4.4. After 60 minutes, the values were detected by Envision 2101 microplate reader (PerkinElmer).
(In TR-FRET formats the signal depends on donor and acceptor labels being close together.)

The subject of data set [3] is HEK293 cells. Briefly: CCK-8 cytotoxicity test. The following applies: for CCK-8 Assay (30 μM): cytotoxicity on HEK293 cells at 30 μM; for CCK-8 Assay (100 μM): cytotoxicity on HEK293 cells at 100 μM. How it is done: The cytotoxicity of the compounds was evaluated by using CCK-8 experiment. CCK-8 is an indicator of redox reaction. In the presence of the electron carrier 1-Methoxy PMS, dehydrogenase in living cells is used to catalyze the tetrazolium salt WST-8 to form formazan dye. The production amount of formazan dye has a linear relationship with the number of living cells. The light absorption value measured at 450 nm using a microplate reader can indirectly reflect the number of living cells. Therefore, this method is used for the activity detection of some bioactive factors, large-scale anti-tumor drug screening, cell proliferation test, cytotoxicity test, and drug sensitivity test. This experiment is used to evaluate the cytotoxicity of the compounds. 2 μg of the chimeric plasmid LBD(hFXR)-pbind and 2 μg of Luciferase reporter plasmid were co-transfected into 2×10^6 HEK293 cells and inoculated in transparent 96-well plates. After 24 h, the culture medium was discarded and the test compound (diluted in serum-free culture medium, containing 1% DMSO) was added and incubated for 1 h, then FXR agonist GW4064 (300 nM) was added to agitate for 4 h. 10 μl detection reagent for CCK-8 was added to each well. After 2 hours, absorbance values at 450 nm and 650 nm (as reference wavelength) were detected with Flextation instrument.

In the case of `CC(C)[C@@H]1CC[C@]2(C(=O)NCC(=O)O)CC[C@]3(C)C(CCC4[C@@]5(C)CC[C@@H](OC(=O)c6cccnc6)C(C)(C)C5CC[C@]43C)C12` (stereo partly drawn) [Compound C16], the IC50 in data set [1] amounted to 5.67 µM. Besides, the EC50 in data set [2] was > 100 µM. Moreover, in data set [3], the “CCK-8 Assay (30 μM)” value is listed as “no” and the “CCK-8 Assay (100 μM)” value was “no”.

For the compound `CC(C)[C@@H]1CC[C@]2(C(=O)NCC(=O)O)CC[C@]3(C)C(CCC4[C@@]5(C)CC[C@@H](O)C(C)(C)C5CC[C@]43C)C12` (stereo partly drawn) [Compound C1], in data set [1], the IC50 was determined as 13.9 µM. Also, in data set [2], the EC50 was > 100 µM. Moreover, in data set [3], the “CCK-8 Assay (30 μM)” value was “no” and the “CCK-8 Assay (100 μM)” value is recorded as “no”.

With `CCCC(=O)O[C@H]1CC[C@@]2(C)C(CC[C@]3(C)C2CCC2C4[C@H](C(C)C)CC[C@]4(C(=O)NCC(=O)O)CC[C@]23C)C1(C)C` (stereo partly drawn) [Compound C12], the IC50 in data set [1] was 8.27 µM. In data set [2], the EC50 was > 100 µM. Also, in data set [3], the “CCK-8 Assay (30 μM)” value was “no” and the “CCK-8 Assay (100 μM)” value was “no”.

In data set [1], `CCCC(=O)O[C@@H]1CC[C@@]2(C)C(CC[C@]3(C)C2CCC2C4[C@H](C(C)C)CC[C@]4(C(=O)NCC(=O)O)CC[C@]23C)C1(C)C` (stereo partly drawn) [Compound C4] showed an IC50 of 2.05 µM. Moreover, the EC50 in data set [2] was > 100 µM. In data set [3], the “CCK-8 Assay (30 μM)” value was “no” and the “CCK-8 Assay (100 μM)” value is listed as “no”.

Compound `CCC(=O)O[C@@H]1CC[C@@]2(C)C(CC[C@]3(C)C2CCC2C4[C@H](C(C)C)CC[C@]4(C(=O)NCC(=O)O)CC[C@]23C)C1(C)C` (stereo partly drawn) [Compound C3] returned an IC50 in data set [1] of 3.89 µM. The EC50 in data set [2] was > 100 µM. Moreover, in data set [3], the “CCK-8 Assay (30 μM)” value is recorded as “no” and the “CCK-8 Assay (100 μM)” value is reported as “no”.

Take `CC(=O)O[C@@H]1CC[C@@]2(C)C(CC[C@]3(C)C2CCC2C4[C@H](C(C)C)CC[C@]4(C(=O)NCC(=O)O)CC[C@]23C)C1(C)C` (stereo partly drawn) [Compound C2]: the IC50 in data set [1] is 6.31 µM. Moreover, the EC50 in data set [2] was > 100 µM. In data set [3], the “CCK-8 Assay (30 μM)” value is recorded as “no” and the “CCK-8 Assay (100 μM)” value is on record as “no”.

A word on the IC50: it is the concentration that inhibits the measured activity by half.

Source of the values: patent US11192916B2, “Pentacyclic triterpene compound and preparation method therefor, and pharmaceutical composition and use thereof” (SHANGHAI INSTITUTE OF MATERIA MEDICA, CHINESE ACADEMY OF …, priority 2017, dated 2021).
